From PMC8119466, “A screen of FDA-approved drugs identifies inhibitors of protein tyrosine phosphatase 4A3 (PTP4A3 or PRL-3)” (Scientific Reports, 2021)
Counter-ions that a name gives are not always drawn. Like-named read-outs stand apart in the source and are kept apart here.

How the values were obtained:
Type in all cases: biochemical
[1] = molecular target: T1, recombinant PRL-1 (Homo sapiens, UniProt Q93096); assay: In vitro phosphatase assay (DiFMUP hydrolysis), PRL-1; further: test concentration or dose not given here
T1 construct: 6xHis (N, cleaved yes); made in house; host or cells: E. coli One Shot BL21 Star
T1 sequence (Q93096 1-173): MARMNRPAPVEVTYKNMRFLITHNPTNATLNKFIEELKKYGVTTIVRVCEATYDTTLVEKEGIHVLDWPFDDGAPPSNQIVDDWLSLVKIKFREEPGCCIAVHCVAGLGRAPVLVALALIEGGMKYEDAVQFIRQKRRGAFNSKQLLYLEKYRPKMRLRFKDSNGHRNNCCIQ

[2] = molecular target: T2, recombinant PRL-2 (Homo sapiens, UniProt Q12974); assay: In vitro phosphatase assay (DiFMUP hydrolysis), PRL-2;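 further: PRL-2 activity read as DiFMUP hydrolysis after 20 min at room temperature with drug, enzyme first pre-reduced at 4 °C for 20 min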
T2 construct: 6xHis (N, cleaved yes); made in house; host or cells: E. coli One Shot BL21 Star
T2 sequence (Q12974 1-167): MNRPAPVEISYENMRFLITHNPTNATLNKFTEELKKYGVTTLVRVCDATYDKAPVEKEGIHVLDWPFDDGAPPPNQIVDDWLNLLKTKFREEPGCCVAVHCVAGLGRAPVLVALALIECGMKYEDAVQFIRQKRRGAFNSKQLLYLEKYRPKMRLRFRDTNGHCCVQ

[3] = molecular target: T3, recombinant PRL-3 (Homo sapiens, UniProt O75365); assay: In vitro phosphatase assay (DiFMUP hydrolysis), PRL-3; further: test concentration or dose not given here
T3 construct: 6xHis (N, cleaved yes); made in house; host or cells: E. coli One Shot BL21 Star

[4] = FDA-approved drug screen, compared to DMSO

T3 sequence (O75365 whole entry): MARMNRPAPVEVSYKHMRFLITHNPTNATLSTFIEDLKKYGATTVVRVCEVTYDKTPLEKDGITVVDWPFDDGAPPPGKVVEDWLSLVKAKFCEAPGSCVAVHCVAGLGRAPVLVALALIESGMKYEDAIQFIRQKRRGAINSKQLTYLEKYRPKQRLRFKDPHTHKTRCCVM

Row | Compound | % Phosphatase Activity (compared to DMSO) PRL-1 [1, 4] [%] | % Phosphatase Activity (compared to DMSO) PRL-2 [2, 4] [%] | % Phosphatase Activity (compared to DMSO) PRL-3 [3, 4] [%] | % Phosphatase Activity (compared to DMSO) PRL-1 [1] [%] | % Phosphatase Activity (compared to DMSO) PRL-2 [2] [%] | % Phosphatase Activity (compared to DMSO) PRL-3 [3] [%]
1 | COC(=O)Nc1nc2cc(C(=O)c3ccc(F)cc3)ccc2[nH]1 [Flubendazole] | 91 | 103 | 92 |  |  | 
2 | Nc1[nH]c(=O)ncc1F [Flucytosine] | 99 | 92 | 74 |  |  | 
3 | Nc1nc(F)nc2c1ncn2[C@@H]1O[C@H](COP(=O)(O)O)[C@@H](O)[C@@H]1O [Fludarabine Phosphate] | 97 | 91 | 70 |  |  | 
4 | Nc1nc(F)nc2c1ncn2[C@@H]1O[C@H](CO)[C@@H](O)[C@@H]1O [Fludarabine] | 110 | 119 | 94 |  |  | 
5 | O=C(O)c1ccccc1Nc1cccc(C(F)(F)F)c1 [Flufenamic acid] | 81 | 85 | 69 |  |  | 
6 | CCOC(=O)c1ncn2c1CN(C)C(=O)c1cc(F)ccc1-2 [Flumazenil] | 106 | 102 | 69 |  |  | 
7 | CC1CCc2cc(F)cc3c(=O)c(C(=O)O)cn1c23 (stereo not drawn) [Flumequine] | 122 | 112 | 96 |  |  | 
8 | Cl.Cl.Fc1ccc(C(c2ccc(F)cc2)N2CCN(C/C=C/c3ccccc3)CC2)cc1 [Flunarizine 2HCl] | 111 | 107 | 101 |  |  | 
9 | CNC[C@H](O)[C@@H](O)[C@H](O)[C@H](O)CO.Cc1c(Nc2ncccc2C(=O)O)cccc1C(F)(F)F [Flunixin Meglumin] | 94 | 88 | 80 |  |  | 
10 | CC1(C)O[C@@H]2C[C@H]3[C@@H]4C[C@H](F)C5=CC(=O)C=C[C@]5(C)[C@@]4(F)[C@@H](O)C[C@]3(C)[C@]2(C(=O)CO)O1 [Fluocinolone Acetonide] | 110 | 111 | 82 |  |  | 
11 | CC(=O)OCC(=O)[C@@]12OC(C)(C)O[C@@H]1C[C@H]1[C@@H]3C[C@H](F)C4=CC(=O)C=C[C@]4(C)[C@@]3(F)[C@@H](O)C[C@@]12C [Fluocinonide] | 91 | 92 | 89 |  |  | 
12 | CC(=O)O[C@]1(C(C)=O)CC[C@H]2[C@@H]3C[C@H](C)C4=CC(=O)C=C[C@]4(C)[C@@]3(F)[C@@H](O)C[C@@]21C [Fluorometholone Acetate] | 91 | 96 | 79 |  |  | 
13 | CNCCC(Oc1ccc(C(F)(F)F)cc1)c1ccccc1.Cl (stereo not drawn) [Fluoxetine HCl] | 93 | 105 | 68 |  |  | 
14 | C[C@]1(O)CC[C@H]2[C@@H]3CCC4=CC(=O)CC[C@]4(C)[C@@]3(F)[C@@H](O)C[C@@]21C [Fluoxymesterone] |  |  |  | 90 | 102 | 76
15 | Cl.Cl.OCCN1CCN(CCCN2c3ccccc3Sc3ccc(C(F)(F)F)cc32)CC1 [Fluphenazine (dihydrochloride)] | 94 | 101 | 88 |  |  | 
16 | CC(C(=O)O)c1ccc(-c2ccccc2)c(F)c1 (stereo not drawn) [Flurbiprofen] | 97 | 89 | 73 |  |  | 
17 | CC(C)C(=O)Nc1ccc([N+](=O)[O-])c(C(F)(F)F)c1 [Flutamide] | 81 | 76 | 77 |  |  | 
18 | CCC(=O)O[C@]1(C(=O)SCF)[C@H](C)C[C@H]2[C@@H]3C[C@H](F)C4=CC(=O)C=C[C@]4(C)[C@@]3(F)[C@@H](O)C[C@@]21C [Fluticasone propionate] | 103 | 92 | 90 |  |  | 
19 | CC(C)n1c(/C=C/C(O)CC(O)CC(=O)O)c(-c2ccc(F)cc2)c2ccccc21 (stereo not drawn) [Fluvastatin Sodium] | 81 | 95 | 89 |  |  | 
20 | COCCCC/C(=N\OCCN)c1ccc(C(F)(F)F)cc1 [Fluvoxamine maleate] | 88 | 100 | 75 |  |  | 
21 | Nc1nc(=O)c2nc(CNc3ccc(C(=O)N[C@@H](CCC(=O)O)C(=O)O)cc3)cnc2[nH]1 [Folic acid] | 100 | 112 | 92 |  |  | 
22 | Cc1cn[nH]c1 [Fomepizole] | 102 | 102 | 78 |  |  | 
23 | COc1cc2c(Oc3ccc(NC(=O)C4(C(=O)Nc5ccc(F)cc5)CC4)cc3F)ccnc2cc1OCCCN1CCOCC1 [Foretinib (GSK1363089)] | 103 | 105 | 97 |  |  | 
24 | C[C@]12CCC(=O)C(O)=C1CC[C@@H]1[C@@H]2CC[C@]2(C)C(=O)CC[C@@H]12 [Formestane] |  |  |  | 102 | 123 | 85
25 | COc1ccc(C[C@@H](C)NC[C@H](O)c2ccc(O)c(NC=O)c2)cc1.COc1ccc(C[C@@H](C)NC[C@H](O)c2ccc(O)c(NC=O)c2)cc1.O=C(O)/C=C/C(=O)O [Formoterol Hemifumarate] | 95 | 106 | 91 |  |  | 
